Reference: patent US11135214B2, “Methods for enhancing the bio availability and exposure of a voltage-gated potassium channel opener” (priority 2018, dated 2021)
“And” between values parts separate entries of the source, which are not always exact repeats. Equal values may be shown once. Read-outs that look alike come from different tables or passages of the source.

What was measured:
cortical excitability = assay: TMS crossover study, global mean field power (GMFP); assay type: in vivo, human; details: 20 mg, pre-dose vs post-dose (FIG. 12)
Excerpt: Additional measures of cortical excitability including global mean field power were similarly impacted.

[1] = Food effect study, oral capsule, plasma PK in non-human primate; assay type: in vivo, Cynomolgus monkeys; details: for AUC(0-inf): read-out: AUCinfobs
Experimental: The following study was conducted to determine the effect of food when Compound A is orally administered to a non-human primate.
Three (n=3) Cynomolgus monkeys of Vietnamese origin were used in this study. At the time of initial dose administration, the monkeys weighed 4.7 to 5.1 kg and were about 4.5 years of age.
A certified primate diet (Teklad® Certified Diet 2050C) was fed during the study. For Group 1, the three monkeys were fasted overnight with food returned 4 hours post-dose. For Group 2, the same three monkeys were fasted overnight and offered food about 1 hour prior to dosing and food was returned at 4 hours post-dose. The following Table 1 gives the food consumption for Group 2:
The oral dosage units consisted of about 3 mg/kg of Compound A in a capsule. The capsules were filled the morning of the dose administration and kept at room temperature until dosing. The remaining capsules were placed into the −20° C. storage.
The capsules were placed as far back in the animal's mouth as possible using a pill gun or a modified gavage tube. Approximately 10 mL of water was administered via syringe to ensure complete delivery of the intended dose. Each animal received 1 capsule per dose. The same animals were dosed twice with a 96 hour washout period between doses.
Group 1: All animals were weighed the afternoon prior to dose administration. Animal #2 struggled with dosing. After several attempts, the animal was given a short break and finally dosed successfully.
Group 2: All animals were weighed the morning of dose administration. All animals were dosed without incident.
Whole blood (˜2.0 mL) was collected using syringe and needle from cephalic or saphenous veins and transferred into vacutainer tubes containing K2EDTA and kept on wet ice until processed for plasma. Blood samples were collected at time of dosing (0.0 hours, time zero) and at 0.5, 1, 2, 4, 8, 12, 24 and 48 hours post-dose.
The whole blood samples were placed in a K2EDTA tube and centrifuged at 3200 RPM for 10 minutes at approximately 5° C. Plasma samples were divided into 2 aliquots and each aliquot directly transferred to appropriately labeled, individual tubes containing study number, collection time point, animal ID number, and sample description. One aliquot was placed into storage at −20±5° C. until shipment for analysis. The other aliquot was retained at −20±5° C. Red blood cells were disposed.
All samples were processed per standard protocol for bioanalytical analysis.

[2] = Cynomolgus (Vietnamese origin), cynomolgus monkey, plasma, po, 3 mg/kg, Group 2 (fed), 3 mg/kg capsule, individual subjects
[3] = Cynomolgus, Vietnamese origin, cynomolgus monkey, plasma, po, 3 mg/kg, Group 1 (fasted), 3 mg/kg capsule, Mean
[4] = Group 1 (fasted), 3 mg/kg capsule, individual subjects, 3 mg/kg
[5] = Group 2 (fed), 3 mg/kg capsule, individual subjects, 3 mg/kg
[6] = cynomolgus monkey, plasma, po, 3 mg/kg, Group 2 (fed), 3 mg/kg capsule, Mean

Question: What does the source list for `Cc1cc(N2CCc3cc(F)ccc3C2)cc(C)c1NC(=O)CC(C)(C)C` [Compound A, N-[4-(6-fluoro-3,4-dihydro-1H-isoquinolin-2-yl)-2,6-dimethylphenyl]-3,3-dimethylbutanamide]?
Answer: global mean field power (GMFP) (cortical excitability): reduction of cortical excitability over time; Cmax ([1]; Cynomolgus (Vietnamese origin), cynomolgus monkey, plasma, po, 3 mg/kg, Group 2 (fed), 3 mg/kg capsule, Mean, read-out: Cmax): 65.4 ng/mL; Tmax ([1]; Cynomolgus (Vietnamese origin), cynomolgus monkey, plasma, po, 3 mg/kg, Group 2 (fed), 3 mg/kg capsule, Mean, read-out: Tmax): 8 h; AUC(0-t) [1, 2]: 1120 ng·h/mL; AUC(0-inf) [1, 2]: 1180 ng·h/mL; Cmax ([1]; Cynomolgus (Vietnamese origin), cynomolgus monkey, plasma, po, 3 mg/kg, Group 2 (fed), 3 mg/kg capsule, individual subjects, read-out: Cmax): 50.4 ng/mL; AUC(0-t) [1, 3]: 1490 ng·h/mL; AUC(0-inf) [1, 3]: 913 ng·h/mL; Cmax ([1]; Cynomolgus, Vietnamese origin, cynomolgus monkey, plasma, po, 3 mg/kg, Group 1 (fasted), 3 mg/kg capsule, Mean, read-out: Cmax): 55.7 ng/mL; Tmax ([1]; Cynomolgus, Vietnamese origin, cynomolgus monkey, plasma, po, 3 mg/kg, Group 1 (fasted), 3 mg/kg capsule, Mean, read-out: Tmax): 10.7 h; Cmax ([1]; Cynomolgus, Vietnamese origin, cynomolgus monkey, plasma, po, 3 mg/kg, Group 1 (fasted), 3 mg/kg capsule, individual subjects, read-out: Cmax): 75.1 ng/mL; Tmax ([1]; Cynomolgus, Vietnamese origin, cynomolgus monkey, plasma, po, 3 mg/kg, Group 1 (fasted), 3 mg/kg capsule, individual subjects, read-out: Tmax): 12 h; t½λz ([1]; Group 1 (fasted), 3 mg/kg capsule, Mean): 9.7 h; t½λz ([1]; Group 1 (fasted), 3 mg/kg capsule, individual subjects): 9.7 h; AUClast [1, 4]: 1940 ng·h/mL and 1650 ng·h/mL and 869 ng·h/mL; Cmax [1, 4]: 53.7 ng/mL and 38.4 ng/mL; t½λz ([1]; Group 2 (fed), 3 mg/kg capsule, Mean): 10.1 h; t½λz ([1]; Group 2 (fed), 3 mg/kg capsule, individual subjects): 10.1 h; AUClast [1, 5]: 2010 ng·h/mL and 1790 ng·h/mL; Cmax [1, 5]: 67.5 ng/mL and 78.2 ng/mL; Tmax [1, 5]: 4 h; concentration at 0 h ([1]; cynomolgus monkey, plasma, oral, 3 mg/kg, Group 1 (fasted), 3 mg/kg, 0 h, N=3, read-out: Mean plasma concentration): 0 ng/mL; concentration at 0.5 h ([1]; cynomolgus monkey, plasma, oral, 3 mg/kg, Group 1 (fasted), 3 mg/kg, 0.5 h, N=3, read-out: Mean plasma concentration): 0 ng/mL; concentration at 1 h ([1]; cynomolgus monkey, plasma, oral, 3 mg/kg, Group 1 (fasted), 3 mg/kg, 1 h, N=3, read-out: Mean plasma concentration): 6.89 ng/mL; concentration at 2 h ([1]; cynomolgus monkey, plasma, oral, 3 mg/kg, Group 1 (fasted), 3 mg/kg, 2 h, N=3): 15.3 ng/mL; concentration at 4 h ([1]; cynomolgus monkey, plasma, oral, 3 mg/kg, Group 1 (fasted), 3 mg/kg, 4 h, N=3, read-out: Mean plasma concentration): 16.6 ng/mL; concentration at 8 h ([1]; cynomolgus monkey, plasma, oral, 3 mg/kg, Group 1 (fasted), 3 mg/kg, 8 h, N=3, read-out: Mean plasma concentration): 49.9 ng/mL; concentration at 12 h ([1]; cynomolgus monkey, plasma, oral, 3 mg/kg, Group 1 (fasted), 3 mg/kg, 12 h, N=3, read-out: Mean plasma concentration): 55.7 ng/mL; concentration at 24 h ([1]; cynomolgus monkey, plasma, oral, 3 mg/kg, Group 1 (fasted), 3 mg/kg, 24 h, N=3): 42.5 ng/mL; concentration at 48 h ([1]; cynomolgus monkey, plasma, oral, 3 mg/kg, Group 1 (fasted), 3 mg/kg, 48 h, N=3): 8.94 ng/mL; concentration at 0 h ([1]; cynomolgus monkey, plasma, oral, 3 mg/kg, Group 2 (fed), 3 mg/kg, 0 h, N=3, read-out: Mean plasma concentration): 0 ng/mL; concentration at 0.5 h ([1]; cynomolgus monkey, plasma, oral, 3 mg/kg, Group 2 (fed), 3 mg/kg, 0.5 h, N=3, read-out: Mean plasma concentration): 0.35 ng/mL; concentration at 1 h ([1]; cynomolgus monkey, plasma, oral, 3 mg/kg, Group 2 (fed), 3 mg/kg, 1 h, N=3, read-out: Mean plasma concentration): 1.25 ng/mL; concentration at 2 h ([1]; cynomolgus monkey, plasma, oral, 3 mg/kg, Group 2 (fed), 3 mg/kg, 2 h, N=3): 7.73 ng/mL; concentration at 4 h ([1]; cynomolgus monkey, plasma, oral, 3 mg/kg, Group 2 (fed), 3 mg/kg, 4 h, N=3, read-out: Mean plasma concentration): 44.3 ng/mL; concentration at 8 h ([1]; cynomolgus monkey, plasma, oral, 3 mg/kg, Group 2 (fed), 3 mg/kg, 8 h, N=3, read-out: Mean plasma concentration): 55.4 ng/mL; concentration at 12 h ([1]; cynomolgus monkey, plasma, oral, 3 mg/kg, Group 2 (fed), 3 mg/kg, 12 h, N=3, read-out: Mean plasma concentration): 52.8 ng/mL; concentration at 24 h ([1]; cynomolgus monkey, plasma, oral, 3 mg/kg, Group 2 (fed), 3 mg/kg, 24 h, N=3): 45 ng/mL; concentration at 48 h ([1]; cynomolgus monkey, plasma, oral, 3 mg/kg, Group 2 (fed), 3 mg/kg, 48 h, N=3): 11.6 ng/mL; concentration at 0 h ([1]; cynomolgus monkey, plasma, oral, 3 mg/kg, fed, 3 mg/kg capsule, plasma, 0 h, individual animals, read-out: Concentration): 0 ng/mL; concentration at 1 h ([1]; cynomolgus monkey, plasma, oral, 3 mg/kg, fed, 3 mg/kg capsule, plasma, 1 h, individual animals, read-out: Concentration): 1.05 ng/mL; concentration at 8 h ([1]; cynomolgus monkey, plasma, oral, 3 mg/kg, fed, 3 mg/kg capsule, plasma, 8 h, individual animals, read-out: Concentration): 50.4 ng/mL; concentration at 12 h ([1]; cynomolgus monkey, plasma, oral, 3 mg/kg, fed, 3 mg/kg capsule, plasma, 12 h, individual animals, read-out: Concentration): 48.8 ng/mL; AUC(0-inf) ([1]; cynomolgus monkey, plasma, po, 3 mg/kg, Group 1 (fasted), 3 mg/kg capsule, individual subjects): 913 ng·h/mL; AUC(0-t) [1, 6]: 1640 ng·h/mL; AUC(0-inf) [1, 6]: 1180 ng·h/mL; concentration at 0 h ([1]; cynomolgus monkey, plasma, po, 3 mg/kg, fasted, 3 mg/kg oral, plasma, 0 h, individual animals, read-out: Concentration): 0 ng/mL; concentration at 0.5 h ([1]; cynomolgus monkey, plasma, po, 3 mg/kg, fasted, 3 mg/kg oral, plasma, 0.5 h, individual animals, read-out: Concentration): 0 ng/mL; concentration at 4 h ([1]; cynomolgus monkey, plasma, po, 3 mg/kg, fasted, 3 mg/kg oral, plasma, 4 h, individual animals, read-out: Concentration): 12.6 ng/mL; concentration at 8 h ([1]; cynomolgus monkey, plasma, po, 3 mg/kg, fasted, 3 mg/kg oral, plasma, 8 h, individual animals, read-out: Concentration): 38.4 ng/mL; concentration at 12 h ([1]; cynomolgus monkey, plasma, po, 3 mg/kg, fasted, 3 mg/kg oral, plasma, 12 h, individual animals, read-out: Concentration): 38.3 ng/mL; Concentration ([1]; fasted, 3 mg/kg oral, plasma, 0 h, individual animals): 0 ng/mL; Concentration ([1]; fasted, 3 mg/kg oral, plasma, 0.5 h, individual animals): 0 ng/mL; Concentration ([1]; fasted, 3 mg/kg oral, plasma, 1 h, individual animals, 3 mg/kg): 15.6 ng/mL and 5.07 ng/mL and 0 ng/mL; Concentration ([1]; fasted, 3 mg/kg oral, plasma, 2 h, individual animals, 3 mg/kg): 6.00 ng/mL and 23.5 ng/mL and 16.4 ng/mL; Concentration ([1]; fasted, 3 mg/kg oral, plasma, 4 h, individual animals, 3 mg/kg): 19.2 ng/mL and 18.1 ng/mL; Concentration ([1]; fasted, 3 mg/kg oral, plasma, 8 h, individual animals, 3 mg/kg): 63.1 ng/mL and 48.1 ng/mL; Concentration ([1]; fasted, 3 mg/kg oral, plasma, 12 h, individual animals, 3 mg/kg): 75.1 ng/mL and 53.7 ng/mL; Concentration ([1]; fasted, 3 mg/kg oral, plasma, 24 h, individual animals, 3 mg/kg): 22.5 ng/mL and 53.2 ng/mL and 51.8 ng/mL; Concentration ([1]; fasted, 3 mg/kg oral, plasma, 48 h, individual animals, 3 mg/kg): 3.13 ng/mL and 12.5 ng/mL and 11.2 ng/mL; Concentration ([1]; fed, 3 mg/kg capsule, plasma, 0 h, individual animals): 0 ng/mL; Concentration ([1]; fed, 3 mg/kg capsule, plasma, 0.5 h, individual animals, 3 mg/kg): 1.05 ng/mL and 0 ng/mL (2×); Concentration ([1]; fed, 3 mg/kg capsule, plasma, 1 h, individual animals, 3 mg/kg): 1.21 ng/mL and 1.48 ng/mL; Concentration ([1]; fed, 3 mg/kg capsule, plasma, 2 h, individual animals, 3 mg/kg): 11.8 ng/mL and 0 ng/mL and 11.4 ng/mL; Concentration ([1]; fed, 3 mg/kg capsule, plasma, 4 h, individual animals, 3 mg/kg): 34.8 ng/mL and 19.9 ng/mL and 78.2 ng/mL; Concentration ([1]; fed, 3 mg/kg capsule, plasma, 8 h, individual animals, 3 mg/kg): 52.2 ng/mL and 63.7 ng/mL; Concentration ([1]; fed, 3 mg/kg capsule, plasma, 12 h, individual animals, 3 mg/kg): 67.5 ng/mL and 42.2 ng/mL; Concentration ([1]; fed, 3 mg/kg capsule, plasma, 24 h, individual animals, 3 mg/kg): 24.2 ng/mL and 61.9 ng/mL and 48.8 ng/mL; Concentration ([1]; fed, 3 mg/kg capsule, plasma, 48 h, individual animals, 3 mg/kg): 4.26 ng/mL and 16.9 ng/mL and 13.5 ng/mL
